These results are taken from ChEMBL document CHEMBL1133169, “A light-inactivated antibiotic” (2000).

Assay [1] in a line: The turnover kinetic parameter (kcat) evaluated for class C Q908R Beta-latctamase.
The target of assay [2] is Beta-lactamase TEM (Escherichia coli) (UniProt P62593). Briefly: The turnover kinetic parameter (kcat/Km) evaluated for class A TEM-1 Beta-latctamase.
Assay [3] in a line: The turnover kinetic parameter (Km) evaluated for Class C Q908R Beta-lactamase.
The target of assay [4] is Beta-lactamase TEM (Escherichia coli) (UniProt P62593). The assay is described as follows: The turnover kinetic parameter (kcat) evaluated for Class A TEM-1 beta-lactamase.
A short description of assay [5]: The turnover kinetic parameter (kcat/Km) evaluated for class C Q908R Beta-latctamase.

One may read the Km as the substrate concentration at which the rate is half of its maximum.

Sequence of Beta-lactamase TEM (Escherichia coli) (P62593 whole entry): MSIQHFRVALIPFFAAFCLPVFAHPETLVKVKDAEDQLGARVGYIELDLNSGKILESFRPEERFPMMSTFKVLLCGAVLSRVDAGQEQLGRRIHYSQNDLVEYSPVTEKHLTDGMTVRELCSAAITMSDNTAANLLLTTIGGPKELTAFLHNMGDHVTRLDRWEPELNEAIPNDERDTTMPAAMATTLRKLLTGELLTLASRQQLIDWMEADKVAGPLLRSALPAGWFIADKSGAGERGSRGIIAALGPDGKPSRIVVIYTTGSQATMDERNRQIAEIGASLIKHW

Consider `CC(=O)OCC1=C(C(=O)O)N2C(=O)[C@@H](NC(=O)[C@@H](Cc3ccccc3)NNC(=O)OCc3ccccc3[N+](=O)[O-])C2SC1` (stereo not given in full), for which the k cat in assay [1] worked out at 1770 s⁻¹; in assay [4], 7.4 s⁻¹. In addition, the k cat/Km in assay [2] was 93000 M⁻¹ s⁻¹; in assay [5], 2.8e+07 M⁻¹ s⁻¹. Besides, the Km in assay [3] came out at 62 µM.
